Reference: US5599793A, “Antithromobotic agents” (Eli Lilly and Company, priority 1995, dated 1997)

Assays:
[1] = Index of bioavailability (% Relative Activity from plasma TT AUC, oral vs i.v.); format: in vivo; conditions: dose-adjusted AUC of plasma TT, p.o. versus i.v. bolus
Experimental: Plasma thrombin time (TT) and activated partial thromboplastin time (APTT) are measured with a fibrometer. Blood is sampled from a jugular catheter and collected in syringe containing sodium citrate (3.8%, 1 part to 9 parts blood). To measure TT, rat plasma (0.1 mL) is mixed with saline (0.1 mL) and bovine thrombin (0.1 mL, 30 U/mL in TRIS buffer; Parke Davis) at 37° C. For APTT, plasma (0.1 mL) and APTT solution (0.1 mL, Organon Teknika) are incubated for 5 minutes (37° C.) and CaCl2 (0.01 mL, 0.025M) is added to start coagulation. Assays are done in duplicate and averaged.
A measure of bioactivity, plasma thrombin time (TT), served as a substitute for the assay of parent compound on the assumption that increments in TT resulted from thrombin inhibition by parent only. The time course of the effect of the thrombin inhibitor upon TT is determined after i.v. bolus administration to anesthetized rats and after oral treatment of fasted conscious rats. Due to limitations of blood volume and the number of points required to determine the time course from time of treatment to the time when the response returned to pretreatment values, two populations of rats are used. Each sample population represented alternating sequential time points. The average TT over the time course is used to calculate area under the curve (AUC). The index of bioavailability is calculated by the formula shown below and is expressed as percent relative activity.
The area under the curve (AUC) of the plasma TT time course is determined and adjusted for the dose. This index of bioavailability is termed "% Relative Activity" and is calculated as [formula] Compounds
Compound solutions are prepared fresh daily in normal saline and are injected as a bolus or are infused starting 15 minutes before and continuing throughout the experimental perturbation which is 15 minutes in the arteriovenous shunt model and 60 minutes in the FeCl3 model of arterial injury and in the spontaneous thombosis model. Bolus injection volume is 1 mL/kg for i.v., and 5 mL/kg for p.o. and infusion volume is 3 mL/hr.

Human plasma [2] = assay: Human plasma anticoagulation, activated partial thromboplastin time (APTT); format: biochemical; conditions: concentration required to double the APTT, linear extrapolation
Human Thrombin = Human Thrombin (Homo sapiens, UniProt P00734); assay: Inhibition of amidase activity of thrombin (Kass); format: biochemical; conditions: apparent association constant, mean over a range of concentrations
t-PA = molecular target: T1, t-PA (Homo sapiens, UniProt P00750); assay: Serine protease selectivity, chromogenic substrate (Kass), t-PA; format: biochemical; conditions: substrate H-D-Ile-Pro-Arg-p-nitroanilide
T1 construct: purchased American Diagnostica, Greenwich, Conn
T1 sequence (P00750 36-562): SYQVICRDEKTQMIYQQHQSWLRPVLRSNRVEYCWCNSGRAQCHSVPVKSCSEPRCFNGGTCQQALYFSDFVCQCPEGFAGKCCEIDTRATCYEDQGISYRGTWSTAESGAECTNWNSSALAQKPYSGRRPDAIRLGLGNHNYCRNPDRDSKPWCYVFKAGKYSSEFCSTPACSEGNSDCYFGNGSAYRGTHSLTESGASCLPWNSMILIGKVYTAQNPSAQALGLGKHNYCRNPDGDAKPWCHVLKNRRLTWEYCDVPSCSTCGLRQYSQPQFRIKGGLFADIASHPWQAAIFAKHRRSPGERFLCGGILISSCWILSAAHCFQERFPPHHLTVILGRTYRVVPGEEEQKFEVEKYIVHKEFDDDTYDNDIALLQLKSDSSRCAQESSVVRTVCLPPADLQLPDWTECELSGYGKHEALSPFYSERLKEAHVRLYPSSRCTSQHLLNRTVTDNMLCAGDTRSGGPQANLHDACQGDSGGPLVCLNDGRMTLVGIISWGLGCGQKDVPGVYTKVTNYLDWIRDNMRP

Human plasma [3] = assay: Human plasma anticoagulation, thrombin time (TT); format: biochemical; conditions: concentration required to double the thrombin time, linear extrapolation

| Compound | % oral/i.v. activity (Rat) [1] | 2x Clotting time, APTT (Human plasma [2]) | Enzyme Kass, Human Thrombin (Human Thrombin) | Enzyme Kass, t-PA (t-PA) | 2x Clotting time, TT (Human plasma [3]) | 2x Clotting time, APTT (Human plasma [2]; HCl) | Enzyme Kass, Human Thrombin (Human Thrombin; HCl) | Enzyme Kass, t-PA (t-PA; HCl) | 2x Clotting time, TT (Human plasma [3]; HCl) |
| --- | --- | --- | --- | --- | --- | --- | --- | --- | --- |
| Cl.Cl.Cl.N=C(N)NCCC[C@@H](C=O)NC(=O)[C@@H]1C[C@H](Oc2ccc(N)cc2)CN1C(=O)[C@H]1CCCCN1 (relative stereo) [Example 11, D-hPro-Pro(4-cis-(4-NH2-phenoxy))-ArgH.3 HCl] | 9% | 1,400 ng/mL | 28 L/mol × 10^6 | 0.086 L/mol × 10^6 | 96 ng/mL | – | – | – | – |
| CCS(=O)(=O)N[C@@H](C(=O)N1[C@H](C(=O)N[C@H](C=O)CCCNC(=N)N)C[C@@H]2CCCC[C@@H]21)c1ccccc1.Cl (relative stereo) [Example 22, EtSO2 -D-Phg-cis-Ohi-ArgH.HCl] | 30% | 332 ng/mL | 6,170 L/mol × 10^6 | 0.085 L/mol × 10^6 | 9 ng/mL | – | – | – | – |
| C[C@H]1C[C@@H](C(=O)N[C@H](C=O)CCCNC(=N)N)N(C(=O)[C@H]2CCCCN2)C1.Cl.Cl (relative stereo) [Example 1, D-homoprolyl-L-cis-4-methyl-prolyl-L-argininal dihydrochloride] | 47% | 510 ng/mL | 220 L/mol × 10^6 | 0.077 L/mol × 10^6 | 60 ng/mL | – | – | – | – |
| Cl.Cl.N=C(N)NCCCC(C=O)NC(=O)C1CC2CCCCC2N1C(=O)C1NCCC2CCCCC21 [Example 20, D-1-cis-Piq-cis-Ohi-ArgH.2 HCl] | 6% | – | – | – | – | 627 ng/mL | 1,630 L/mol × 10^6 | 0.013 L/mol × 10^6 | 19 ng/mL |
| Cl.Cl.Cl.N=C(N)NCCC[C@@H](C=O)NC(=O)[C@@H]1C[C@H](Oc2cccnc2)CN1C(=O)[C@H]1CCCCN1 (relative stereo) [Example 9, D-hPro-Pro(4-cis-(3-pyridyloxy))-ArgH.3 HCl] | 13% | 880 ng/mL | 37 L/mol × 10^6 | 0.055 L/mol × 10^6 | 50 ng/mL | – | – | – | – |
| Cl.Cl.N=C(N)NCCC[C@@H](C=O)NC(=O)[C@@H]1CC2CCCCC2N1C(=O)[C@H]1CCCCN1 (relative stereo) [Example 7, N-[(1-D-homoprolyl-cis-octahydro-1H-indol-2(S)-yl)carbonyl]-L-argininal dihydrochloride] | 50% | 450 ng/mL | 340 L/mol × 10^6 | 0.053 L/mol × 10^6 | 37 ng/mL | – | – | – | – |
| Cl.Cl.N=C(N)NCCC[C@@H](C=O)NC(=O)[C@@H]1C[C@H](Oc2ccccc2)CN1C(=O)C1NCCC2CCCCC21 (relative stereo) [Example 15, D-1-Piq-Pro(4-cis-phenoxy)-ArgH.2 HCl] | 5% | 940 ng/mL | 230 L/mol × 10^6 | 0.045 L/mol × 10^6 | 28 ng/mL | – | – | – | – |
| Cl.Cl.N=C(N)NCCC[C@H](C=O)NC(=O)[C@@H]1C[C@H](Oc2ccccc2)CN1C(=O)[C@H]1CCCCN1 (relative stereo) [Example 8, D-homoprolyl-L-cis-4-phenoxy-L-prolyl-D-argininal dihydrochloride] | 20% | 520 ng/mL | 50 L/mol × 10^6 | 0.069 L/mol × 10^6 | 70 ng/mL | – | – | – | – |
| CC[C@H]1C[C@@H](C(=O)N[C@H](C=O)CCCNC(=N)N)N(C(=O)[C@H]2CCCCN2)C1.Cl.Cl (relative stereo) [Example 2, D-homoprolyl-L-cis-4-ethyl-prolyl-L-argininal dihydrochloride] | 50% | 460 ng/mL | 230 L/mol × 10^6 | 0.097 L/mol × 10^6 | 51 ng/mL | – | – | – | – |
| Cl.Cl.N=C(N)NCCC[C@@H](C=O)NC(=O)[C@@H]1C[C@H](Cc2ccccc2)CN1C(=O)[C@H]1CCCCN1 (relative stereo) [Example 5, D-hPro-Pro(4-cis-benzyl)-ArgH.2 HCl] | 20% | 510 ng/mL | 110 L/mol × 10^6 | 0.057 L/mol × 10^6 | 80 ng/mL | – | – | – | – |
| CCC[C@H]1C[C@@H](C(=O)N[C@H](C=O)CCCNC(=N)N)N(C(=O)[C@H]2CCCCN2)C1.Cl.Cl (relative stereo) [Example 3, D-hPro-Pro(4-cis-n-propyl)-ArgH.2 HCl] | 45% | 610 ng/mL | 27 L/mol × 10^6 | 0.14 L/mol × 10^6 | 120 ng/mL | – | – | – | – |
